Data: patent US6066642A, “Dihydropyridine-, pyridine-, benzopyran-4-one- and triazoloquinazoline derivative, their preparation and their use as adenosine receptor antagonists” (priority 1998, dated 2000)
Where two headings read alike, the source gives them in different places.

Experiments:
A1 receptors = biological target: T1, A1 receptors (Rattus norvegicus, UniProt P25099); test: biochemical; format: binding; settings: for Ki: [3H]PIA, rat brain membranes; for inhibition at 100 µM: 10^-4 M, read-out: displacement of specific binding rA1
T1 sequence (P25099 1-326): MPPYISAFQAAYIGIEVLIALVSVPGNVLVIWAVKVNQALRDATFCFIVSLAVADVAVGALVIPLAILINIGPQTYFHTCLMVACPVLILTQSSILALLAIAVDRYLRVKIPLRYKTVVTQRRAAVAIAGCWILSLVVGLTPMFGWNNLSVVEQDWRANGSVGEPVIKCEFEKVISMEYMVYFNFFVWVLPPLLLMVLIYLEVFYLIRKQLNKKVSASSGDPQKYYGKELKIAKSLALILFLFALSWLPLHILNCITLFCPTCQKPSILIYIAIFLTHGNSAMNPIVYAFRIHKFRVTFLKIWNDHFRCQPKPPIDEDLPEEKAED
Description: ^a Displacement of specific [^3 H] PIA binding in rat brain
percentage of specific binding displaced at 100 μM.

A2a receptors = biological target: T2, A2a receptors (Rattus norvegicus, UniProt P30543); test: radioligand binding, displacement of specific [3H]CGS 21680 binding in rat striatal membranes; settings: for inhibition at 100 µM: 10^-4 M
T2 construct: Displacement of specific [^3 H]; from tissue; host or cells: rat striatal membranes
Description: ^b Displacement of specific [^3 H]
or as a percentage of specific binding displaced at 100 μM.

rat A3 receptor = biological target: T3, rat A3 receptor (Rattus norvegicus, UniProt P28647); test: A3-agonist-elicited inhibition of adenylyl cyclase in membranes from CHO cells stably expressing the rat A3 receptor; format: biochemical; settings: compound 50 μM, 1 μM forskolin
T3 construct: expressed in transfected cells; host or cells: CHO cells (membranes)
T3 sequence (P28647 1-320): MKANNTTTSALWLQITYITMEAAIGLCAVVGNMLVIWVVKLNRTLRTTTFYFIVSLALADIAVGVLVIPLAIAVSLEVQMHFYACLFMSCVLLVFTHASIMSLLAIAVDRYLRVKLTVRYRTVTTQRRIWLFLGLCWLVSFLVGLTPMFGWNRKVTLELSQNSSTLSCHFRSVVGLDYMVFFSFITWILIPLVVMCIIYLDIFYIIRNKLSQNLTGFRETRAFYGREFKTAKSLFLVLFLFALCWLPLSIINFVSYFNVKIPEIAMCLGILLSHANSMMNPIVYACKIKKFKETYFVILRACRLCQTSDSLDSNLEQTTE
Description: ^a Assayed in membranes from CHO cells stably expressing the rat
A3 receptor in the presence of 1 μM forskolin.

human A3 receptors = biological target: T4, human A3 receptors (Homo sapiens, UniProt P0DMS8); test: radioligand binding, displacement of specific [125I]AB-MECA binding at human A3 receptors expressed in HEK-293 cells; settings: for Ki: [125I]AB-MECA; for inhibition at 100 µM: 10^-4 M; for inhibition at 10 µM: 10^-5 M
T4 construct: expressed in transfected cells; host or cells: HEK-293 cells (membranes)
T4 sequence (P0DMS8 1-318): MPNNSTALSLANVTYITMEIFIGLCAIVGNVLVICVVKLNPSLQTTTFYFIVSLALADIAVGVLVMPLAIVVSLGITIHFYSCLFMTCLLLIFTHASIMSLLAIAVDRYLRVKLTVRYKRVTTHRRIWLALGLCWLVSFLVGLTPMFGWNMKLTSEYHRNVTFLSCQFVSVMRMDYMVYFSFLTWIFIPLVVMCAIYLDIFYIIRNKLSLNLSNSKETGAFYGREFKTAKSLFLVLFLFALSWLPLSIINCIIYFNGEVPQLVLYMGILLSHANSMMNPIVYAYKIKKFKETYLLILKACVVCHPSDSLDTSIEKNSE
Description: A3 receptors expressed in HEK293 cells, in membranes, expressed as
binding displaced at 100 μM.

[1] = Table 3, [3H]CGS 21680, rat striatal membranes, read-out: Ki rA2a
[2] = IB-MECA 10^-6 M, read-out: % Inhibition of adenylyl cyclase, IB-MECA (10^-6 M)
[3] = IB-MECA 10^-7 M, read-out: % Inhibition of adenylyl cyclase, IB-MECA (10^-7 M)
[4] = Table 5, [3H]CGS 21680, rat striatal membranes, read-out: Ki rA2a
[5] = Table 15, [3H]CGS 21680, rat striatal membranes, read-out: Ki rA2A
[6] = Table 15, HEK membranes, read-out: Ki hA3
[7] = Table 6, read-out: % inhibition hA3
[8] = Table 3, read-out: displacement of specific binding rA2a
[9] = Table 6, [3H]CGS 21680, rat striatal membranes, read-out: K2 (rA2a)
[10] = Table 7, [3H]CGS 21680, rat striatal membranes, read-out: Ki (rA2A)
[11] = Table 7, read-out: % of specific binding displaced hA3
[12] = Table 5, HEK-293 membranes, read-out: Ki hA3

T2 sequence (P30543 whole entry): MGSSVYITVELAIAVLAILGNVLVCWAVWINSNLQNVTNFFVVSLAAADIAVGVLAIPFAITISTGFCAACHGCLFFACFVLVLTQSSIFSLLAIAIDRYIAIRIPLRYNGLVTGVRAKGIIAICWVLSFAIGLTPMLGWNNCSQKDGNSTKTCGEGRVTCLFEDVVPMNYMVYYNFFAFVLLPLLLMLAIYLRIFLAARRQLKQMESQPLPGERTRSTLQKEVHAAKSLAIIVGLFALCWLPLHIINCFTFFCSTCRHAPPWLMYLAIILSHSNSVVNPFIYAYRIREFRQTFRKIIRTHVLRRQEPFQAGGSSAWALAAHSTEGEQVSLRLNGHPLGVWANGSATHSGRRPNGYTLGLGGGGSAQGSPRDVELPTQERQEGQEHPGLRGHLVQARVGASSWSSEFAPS

O=c1c(O)c(-c2ccccc2)oc2cc(O)cc(O)c12 [Compound 1, galangin, reference compound]
Ki (A1 receptors; Table 3, read-out: Ki rA1): 0.863 ± 0.092 µM
Ki (A2a receptors; [1]): 0.966 ± 0.164 µM
inhibition at 50 µM (rat A3 receptor; [2]): 35.3 ± 7.2%
inhibition at 50 µM (rat A3 receptor; [3]): 23.7 ± 5.1%

CCOc1c2ccoc2cc2oc(/C=C/c3ccccc3)cc(=O)c12 [Compound 20, 4-ethyloxy-7-trans-styryl-visnagin]
Ki (A1 receptors; Table 5, read-out: Ki rA1): 35.6 ± 12.7 µM
Ki (A2a receptors; [4]): 33.8 ± 14.8 µM
inhibition at 50 µM (rat A3 receptor; [2]): 40.9 ± 3.7%
inhibition at 50 µM (rat A3 receptor; [3]): 21.2 ± 3.9%

CCOc1cc(OCC)c2c(=O)c(OCC)c(-c3ccccc3)oc2c1 [Compound 3a, 3,5,7-Triethoxyflavone]
Ki (A1 receptors; Table 3, read-out: Ki rA1): 0.603 µM
Ki (A2a receptors; [1]): 3.31 µM
inhibition at 50 µM (rat A3 receptor; [2]): 19.1 ± 7.4%
inhibition at 50 µM (rat A3 receptor; [3]): 2.2 ± 2.2%

COc1c2ccoc2cc2oc(C=Nc3ccccc3)cc(=O)c12 [Compound 24, 4-methoxy-7-(CH=N-phenyl)visnagin]
inhibition at 100 µM (A1 receptors; Table 5): < 10%
inhibition at 100 µM (A2a receptors; Table 5, read-out: displacement of specific binding rA2a): < 10%
rA1/hA3 (human A3 receptors; Table 5, ratio of Ki): > 20

O=c1[nH]c2ccc(Cl)cc2c2nc(-c3ccco3)nn12 [Compound 158, 9-Chloro-2-(2-furyl)[1,2,4]triazolo[1,5-c]quinazolin-5-(6H)-one]
Ki (A1 receptors; Table 15, read-out: Ki rA1): 3 µM
Ki (A2a receptors; [5]): 4 µM
Ki (human A3 receptors; [6]): 0.26 ± 0.087 µM

O=c1cc(-c2ccccc2)oc2cc(O)ccc12 [Compound 26, reference compound]
Ki (A1 receptors; Table 6, read-out: K2 (rA1)): 3.03 ± 0.49 µM
Ki (A2a receptors; striatal membranes, read-out: K2 (rA2a)): 2.68 ± 0.68 µM
inhibition at 100 µM (human A3 receptors; [7]): 41 ± 7%

COc1ccc2oc(C#Cc3ccccc3)c(O)c(=O)c2c1 [Compound 10, 2-phenylacetylenyl-3-hydroxy-6-methoxyflavone]
inhibition at 100 µM (A1 receptors; Table 3): < 10%
inhibition at 100 µM (A2a receptors; [8]): < 10%
rA1/hA3 (human A3 receptors): > 8

O=c1cc(-c2ccc(O)cc2)oc2cc(O)cc(O)c12 [Compound 28, apigenin, reference compound]
Ki (A1 receptors; Table 6, read-out: K2 (rA1)): 3 ± 0.29 µM
Ki (A2a receptors; [9]): 7.58 ± 1.23 µM
inhibition at 10 µM (human A3 receptors; [7]): 63 ± 1%

CCOC(=O)c1c(C)nc(C)c(C(=O)OC)c1C [Compound 80]
Ki (A1 receptors; Table 10, read-out: Ki rA1): 6.95 ± 2.66 µM
Ki (A2a receptors; Table 10, [3H]CGS 21680, rat striatal membranes, read-out: Ki rA2a): 8.96 ± 0.93 µM
Ki (human A3 receptors; Table 10, HEK membranes, read-out: Ki hA3): 29.5 ± 2.1 µM

O=c1cc(-c2ccccc2)oc2c1ccc1ccccc12 [Compound 43, α-naphthoflavone, reference compound]
Ki (A1 receptors; Table 7, read-out: Ki (rA1)): 0.786 µM
Ki (A2a receptors; [10]): 1.32 ± 0.43 µM
inhibition at 10 µM (human A3 receptors; [11]): 71 ± 2%

COc1ccc(-c2cc(=O)c3ccc(O)cc3o2)cc1OC [Compound 27, reference compound]
Ki (A1 receptors; Table 6, read-out: K2 (rA1)): 18.8 ± 3.6 µM
Ki (A2a receptors; [9]): 35.4 ± 7.3 µM
inhibition at 100 µM (human A3 receptors; [7]): 32 ± 4%

COc1cc(OC)c(-c2oc3ccccc3c(=O)c2O)c(OC)c1 [Compound 9, reference compound]
Ki (A1 receptors; Table 3, read-out: Ki rA1): 7.32 ± 1.36 µM
inhibition at 100 µM (A2a receptors; [8]): < 10%
Ki (human A3 receptors; Table 3, HEK-293 membranes, read-out: Ki hA3): 50.1 ± 7.8 µM
rA1/hA3 (human A3 receptors; Table 3, ratio of Ki): 0.15

COc1cc2oc(-c3ccc(O)cc3)cc(=O)c2c(O)c1OC [Compound 33, cirsimaritin, reference compound]
Ki (A1 receptors; Table 6, read-out: K2 (rA1)): 1.2 µM
Ki (A2a receptors; [9]): 3 ± 0.7 µM
Ki (human A3 receptors; Table 6, HEK-293 membranes, read-out: K2 (hA3)): 1.72 µM

O=C(Nc1nc2ccc(Cl)cc2c2nc(-c3ccc(Br)o3)nn12)c1ccccc1 [Compound 156]
Ki (A1 receptors; Table 15, read-out: Ki rA1): > 1 µM
Ki (A2a receptors; [5]): > 1 µM
Ki (human A3 receptors; [6]): 0.856 ± 0.156 µM

CCOC(=O)C1=C(C)NC(C)=C(C(=O)OC)C1C#Cc1ccccc1 (centres unmarked) [Compound 76]
Ki (A1 receptors; Table 9, read-out: Ki rA1): 5.39 ± 0.33 µM
greater affinity to A1 than A2a adenosine receptors (A1 receptors; selectivity in words): greater affinity to A1 adenosine receptors than A2a receptors
Ki (A2a receptors; Table 9, [3H]CGS 21680, rat striatal membranes, read-out: Ki rA2A): 38.3 ± 7.9 µM
Ki (human A3 receptors; Table 9, HEK membranes, read-out: Ki hA3): 0.94 ± 0.7 µM
greater affinity for A3 than A1 or A2a adenosine receptors (human A3 receptors; selectivity in words): greater affinity for A3 adenosine receptors than A1 or A2a adenosine receptors

COC(=O)c1c(C)nc(C)c(C(=O)OC)c1-c1ccccc1[N+](=O)[O-] [Compound 82, reference compound]
inhibition at 100 µM (A1 receptors; Table 10): < 10%
inhibition at 100 µM (A2a receptors; Table 10, read-out: displacement of specific binding rA2a): < 10%
inhibition at 100 µM (human A3 receptors; Table 10, read-out: displacement of specific binding hA3): < 10%

CCn1c2c(c3cc4c(cc3c1=O)OCO4)C(=O)CCC2 [Compound 46, reference compound]
Ki (A1 receptors; Table 7, read-out: Ki (rA1)): 7.59 ± 2.14 µM
Ki (A2a receptors; [10]): 6.98 ± 2.21 µM
inhibition at 100 µM (human A3 receptors; [11]): 19 ± 3%

COc1c2ccoc2cc2oc(C=O)cc(=O)c12 [Compound 18, 4-Methoxy-7-formyl-5H-furo [3,2-g][1]-benzopyrano-5-one]
inhibition at 100 µM (A1 receptors; Table 5): < 10%
inhibition at 100 µM (A2a receptors; Table 5, read-out: % of specific binding displaced rA2a): 25 ± 8%
Ki (human A3 receptors; [12]): 88.9 ± 27.1 µM
rA1/hA3 (human A3 receptors; Table 5, ratio of Ki): > 2

CCOc1c2ccoc2cc2oc(/C=C/C=Cc3ccccc3)cc(=O)c12 [Compound 23, 4-ethoxy-7-phenylbutadienyl visnagin]
inhibition at 100 µM (A1 receptors; Table 5): < 10%
Ki (A2a receptors; [4]): 167 µM
rA1/hA3 (human A3 receptors; Table 5, ratio of Ki): > 4

COc1c2ccoc2cc2oc(/C=C/c3ccccc3)cc(=O)c12 [Compound 19, 4-methyloxy-7-trans-styryl-visnagin]
Ki (A1 receptors; Table 5, read-out: Ki rA1): 32.6 ± 10.5 µM
Ki (A2a receptors; [4]): 11.5 ± 1.3 µM
Ki (human A3 receptors; [12]): 8.28 ± 2.69 µM
rA1/hA3 (human A3 receptors; Table 5, ratio of Ki): 0.37

O=c1cc(-c2ccccc2)oc2ccc3ccccc3c12 [Compound 44, β-naphthoflavone, reference compound]
Ki (A1 receptors; Table 7, read-out: Ki (rA1)): 8.8 ± 3.6 µM
inhibition at 100 µM (A2a receptors; Table 7, read-out: displacement of specific binding rA2A): < 10%
inhibition at 10 µM (human A3 receptors; [11]): 12 ± 1%

CCC(=O)Nc1nc2ccc(Cl)cc2c2nc(-c3ccco3)nn12 [Compound 146, 9-Chloro-2-(2-furyl)-5-propionylamino[1,2,4]triazolo[1,5-c]quinazoline]
Ki (A1 receptors; Table 15, read-out: Ki rA1): 0.283 ± 0.042 µM
Ki (A2a receptors; [5]): 0.106 ± 0.03 µM
Ki (human A3 receptors; [6]): 0.00766 ± 0.00303 µM
rA1/hA3 (human A3 receptors; Table 15, ratio of Ki): 40
rA2A/hA1 (human A3 receptors; Table 15, ratio of Ki): 14

CCCCC(=O)Nc1nc2ccc(Cl)cc2c2nc(-c3ccco3)nn12 [Compound 148, 9-Chloro-2-(2-furyl)-5-pentanoylamino[1,2,4]triazolo[1,5-c]quinazoline]
Ki (A1 receptors; Table 15, read-out: Ki rA1): 0.0289 ± 0.0037 µM
Ki (A2a receptors; [5]): 0.016 µM
Ki (human A3 receptors; [6]): 0.0215 ± 0.0062 µM
rA1/hA3 (human A3 receptors; Table 15, ratio of Ki): 1.3
